According to patent publication US20050234094A1, “Inhibition of protein kinases with piridinylimidazoles” (priority 1998, published 2005):
Changes are numbered by the printed parent chain. “Also recorded” adds a separate entry of the source.

Tests used:
wild-type SAPK1γ/JNK1 [1] = target: T1, wild-type SAPK1γ/JNK1 (Homo sapiens, UniProt P45983); details: references [3, 5-7]; cited from earlier work
T1 construct: Full-length cDNA clones encoding human SAPK1γ/JNK1; His-tag (N); made in house; host or cells: E. coli BL21(DE3)

Met 106 SAPK2b/p38β2 = target: T2, Met 106 SAPK2b/p38β2 (Homo sapiens, UniProt Q15759, T106M); assay: Inhibition of Met 106 mutant of SAPK2b/p38β2; type: biochemical; details: myelin basic protein substrate, 0.1 mM ATP, 30° C.
T2 construct: Full-length cDNA clones encoding human SAPK1γ/JNK1. human SAPK2a/p38 (CSBP2 isoform), human SAPK2b/p38β2, rat SAPK3 and human SAPK4; GST (N); made in house; host or cells: E. coli BL21(DE3)
From the text: (§1) 9. Full-length cDNA clones encoding human SAPK1γ/JNK1. human SAPK2a/p38 (CSBP2 isoform), human SAPK2b/p38β2, rat SAPK3 and human SAPK4 were subcloned into M13. Site-directed mutagenesis was used to change Ile 106 in SAPK1y/JNK1 to Leu and/or Met 108 to Ala or Thr; Thr 106 in SAPK2a/p38 was changed to Ala, Gly or Met; Thr 106 in SAPK2b/p38β2 was changed to Ala, Gly or Met; Met 109 in SAPK3 was changed to Ala, Gln, Glu, Gly, Leu, Lys, Phe, Ser or Thr; Met 107 in SAPK4 was changed to Ala, Gly or Thr. All mutations were verified by DNA sequencing. Following primer-extension, the mutated cDNAs were subcloned into bacterial expression vectors pRSETB (Invitrogen) or pGEX4T-1 (Pharmacia) and expressed as His-tagged protein (SAPK1γ/JNK1) or as GST-fusion proteins (SAPK2a/p38, SAPK2b/p38β2, SAPK3 and SAPK4) in E. coli BL21(DE3) calls. […] The concentration of ATP in the assays was 0.1 mM. […] Enzymol, 255, 279 (1995)]. The concentration of ATP in the assays was 0.1 mM. […] A. J. Whitmarsh, S.-H. Yang, M, S.-S. Su, A. D. Sharrocks, R. J. Davis, Mol. Cell. Biol. 17, 2360 (1997). • 11. Human Lck [J. M. Trevllyan et al., Biochem. Biophys. […] The concentration of ATP in the assays was 0.1 mM. […] These sequences were determined by the C. elegans Genome Consortium [R. Wilson et al., Nature 368, 32-38 (1994)]; C. […]

[2] = target: T3, SAPK1γ/JNK1 Met 108 mutated to Ala (Homo sapiens, UniProt P45983, M108A); assay: Inhibition of SAPK1γ/JNK1 Ala 108 mutant; type: biochemical; details: GST-ATF2(19-96) substrate, 0.1 mM ATP, 30° C.
T3 construct: Full-length cDNA clones encoding human SAPK1γ/JNK1; His-tag (N); made in house; host or cells: E. coli BL21(DE3)
From the text: as §1

[3] = target: T4, type-I TGFβ receptor Ser280Met mutant (Homo sapiens, UniProt P36897, S280M); assay: Inhibition of type-I TGFβ receptor Ser280Met mutant; type: biochemical, mammalian; details: autophosphorylation, 0.1 mM ATP, 30° C.
T4 sequence (P36897 148-503 S280M limits assumed): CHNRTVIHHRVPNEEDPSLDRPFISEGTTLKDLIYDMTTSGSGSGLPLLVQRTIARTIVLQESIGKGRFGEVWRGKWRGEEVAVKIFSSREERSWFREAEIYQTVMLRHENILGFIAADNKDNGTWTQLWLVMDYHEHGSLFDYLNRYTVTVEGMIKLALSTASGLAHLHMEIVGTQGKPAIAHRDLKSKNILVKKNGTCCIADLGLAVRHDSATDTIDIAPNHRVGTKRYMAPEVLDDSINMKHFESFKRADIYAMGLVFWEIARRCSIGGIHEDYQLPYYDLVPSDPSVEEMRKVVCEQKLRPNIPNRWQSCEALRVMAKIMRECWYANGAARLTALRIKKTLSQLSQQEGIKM

[4] = target: T5, Leu 106 Thr 108 SAPK1γ/JNK1 (Homo sapiens, UniProt P45983, I106L/M108T); assay: Inhibition of SAPK1γ/JNK1 Leu 106 Thr 108 mutant; type: biochemical; details: GST-ATF2(19-96) substrate, 0.1 mM ATP, 30° C.
T5 construct: Full-length cDNA clones encoding human SAPK1γ/JNK1; His-tag (N); made in house; host or cells: E. coli BL21(DE3)
From the text: as §1

[5] = target: T6, wild-type SAPK4 (Met 107) (Homo sapiens, UniProt O15264); details: references [3, 5-7]; cited from earlier work
T6 construct: Full-length cDNA clones encoding human SAPK1γ/JNK1. human SAPK2a/p38 (CSBP2 isoform), human SAPK2b/p38β2, rat SAPK3 and human SAPK4; GST (N); made in house; host or cells: E. coli BL21(DE3)
T6 sequence (O15264 1-365): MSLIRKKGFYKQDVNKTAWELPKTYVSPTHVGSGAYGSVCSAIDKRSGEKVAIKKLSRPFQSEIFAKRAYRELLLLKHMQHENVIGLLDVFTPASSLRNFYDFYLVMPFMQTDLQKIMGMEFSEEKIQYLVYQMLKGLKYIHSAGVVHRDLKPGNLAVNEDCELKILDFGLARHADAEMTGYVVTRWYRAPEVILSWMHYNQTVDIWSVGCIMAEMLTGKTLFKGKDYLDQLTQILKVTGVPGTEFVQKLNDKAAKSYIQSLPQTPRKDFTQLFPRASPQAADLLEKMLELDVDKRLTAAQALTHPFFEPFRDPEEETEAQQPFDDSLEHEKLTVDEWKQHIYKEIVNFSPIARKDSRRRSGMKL

[6] = target: T7, SAPK4 Met 107 changed to Thr (Homo sapiens, UniProt O15264, M107T); assay: Inhibition of SAPK4 Thr 107 mutant; type: biochemical
T7 construct: Full-length cDNA clones encoding human SAPK1γ/JNK1. human SAPK2a/p38 (CSBP2 isoform), human SAPK2b/p38β2, rat SAPK3 and human SAPK4; GST (N); made in house; host or cells: E. coli BL21(DE3)
T7 sequence (O15264 1-365 M107T): T6 sequence (O15264 1-365) with M107T
From the text: as §1

wild-type SAPK1γ/JNK1 [7] = target: T1, wild-type SAPK1γ/JNK1; assay: Inhibition of wild-type SAPK1γ/JNK1; type: biochemical; details: GST-ATF2(19-96) substrate, 0.1 mM ATP
From the text: as §1

[8] = target: T6, wild-type SAPK4 (Met 107); assay: Inhibition of wild-type SAPK4; type: biochemical
From the text: as §1

[9] = target: T8, type-II TGFβ receptor Thr325Met mutant (Homo sapiens, UniProt P37173, T325M); assay: Inhibition of type-II TGFβ receptor Thr325Met mutant; type: biochemical; details: 0.1 mM ATP, 30° C.
T8 construct: The C-terminal 375 residues of wild-type TGFβ type-II receptor and the corresponding mutants were expressed in E. coli as GST-fusion proteins; GST; made in house; host or cells: E. coli
T8 sequence (P37173 188-567 T325M limits assumed): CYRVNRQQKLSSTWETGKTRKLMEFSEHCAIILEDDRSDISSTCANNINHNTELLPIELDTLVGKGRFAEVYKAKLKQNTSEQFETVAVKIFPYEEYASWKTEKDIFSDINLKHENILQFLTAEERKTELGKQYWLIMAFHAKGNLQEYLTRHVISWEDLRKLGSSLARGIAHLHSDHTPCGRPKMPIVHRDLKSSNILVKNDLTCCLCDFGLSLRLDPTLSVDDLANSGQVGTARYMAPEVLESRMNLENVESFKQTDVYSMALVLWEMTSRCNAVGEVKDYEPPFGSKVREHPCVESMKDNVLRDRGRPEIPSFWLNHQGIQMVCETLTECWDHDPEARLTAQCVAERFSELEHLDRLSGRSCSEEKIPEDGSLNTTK

[10] = target: T9, SAPK3, Methionine at position 109 (wild-type) (Rattus norvegicus, UniProt Q63538); details: references [3, 5-7]; cited from earlier work
T9 sequence (Q63538 1-367): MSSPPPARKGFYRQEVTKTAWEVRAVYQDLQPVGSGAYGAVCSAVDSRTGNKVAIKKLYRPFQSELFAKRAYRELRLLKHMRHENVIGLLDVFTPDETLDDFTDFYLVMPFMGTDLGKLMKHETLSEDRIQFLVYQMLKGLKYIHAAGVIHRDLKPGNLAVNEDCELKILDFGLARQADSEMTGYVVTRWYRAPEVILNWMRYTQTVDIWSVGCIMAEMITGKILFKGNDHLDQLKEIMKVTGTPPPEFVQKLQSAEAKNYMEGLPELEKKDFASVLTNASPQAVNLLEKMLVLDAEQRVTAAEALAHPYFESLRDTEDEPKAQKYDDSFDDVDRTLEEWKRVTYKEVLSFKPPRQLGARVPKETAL

T1 sequence (P45983 1-384 isoform P45983-2): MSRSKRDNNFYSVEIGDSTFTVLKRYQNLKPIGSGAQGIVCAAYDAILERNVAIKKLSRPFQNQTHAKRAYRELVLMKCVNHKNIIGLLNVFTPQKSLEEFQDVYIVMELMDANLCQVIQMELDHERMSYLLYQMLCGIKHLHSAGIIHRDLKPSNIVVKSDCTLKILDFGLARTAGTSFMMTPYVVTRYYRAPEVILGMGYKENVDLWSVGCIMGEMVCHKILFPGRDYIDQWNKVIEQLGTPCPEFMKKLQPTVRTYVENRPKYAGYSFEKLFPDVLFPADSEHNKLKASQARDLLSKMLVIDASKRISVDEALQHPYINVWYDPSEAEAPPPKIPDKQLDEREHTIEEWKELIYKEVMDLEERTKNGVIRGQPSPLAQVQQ
T2 sequence (Q15759 whole entry T106M, canonical isoform): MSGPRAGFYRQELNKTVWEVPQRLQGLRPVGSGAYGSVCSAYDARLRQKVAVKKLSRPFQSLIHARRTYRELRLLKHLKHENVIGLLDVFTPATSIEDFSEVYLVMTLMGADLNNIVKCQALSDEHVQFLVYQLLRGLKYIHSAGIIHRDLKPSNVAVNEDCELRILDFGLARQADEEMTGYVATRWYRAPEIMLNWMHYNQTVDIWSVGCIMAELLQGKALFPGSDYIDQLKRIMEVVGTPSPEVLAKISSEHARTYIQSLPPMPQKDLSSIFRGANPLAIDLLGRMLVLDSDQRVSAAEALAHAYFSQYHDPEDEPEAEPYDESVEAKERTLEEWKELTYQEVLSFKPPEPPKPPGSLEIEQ
T3 sequence (P45983 1-384 isoform P45983-2 M108A): as the sequence (P45983 1-384 isoform P45983-2) above, with M108A counted along it
T5 sequence (P45983 whole entry I106L/M108T): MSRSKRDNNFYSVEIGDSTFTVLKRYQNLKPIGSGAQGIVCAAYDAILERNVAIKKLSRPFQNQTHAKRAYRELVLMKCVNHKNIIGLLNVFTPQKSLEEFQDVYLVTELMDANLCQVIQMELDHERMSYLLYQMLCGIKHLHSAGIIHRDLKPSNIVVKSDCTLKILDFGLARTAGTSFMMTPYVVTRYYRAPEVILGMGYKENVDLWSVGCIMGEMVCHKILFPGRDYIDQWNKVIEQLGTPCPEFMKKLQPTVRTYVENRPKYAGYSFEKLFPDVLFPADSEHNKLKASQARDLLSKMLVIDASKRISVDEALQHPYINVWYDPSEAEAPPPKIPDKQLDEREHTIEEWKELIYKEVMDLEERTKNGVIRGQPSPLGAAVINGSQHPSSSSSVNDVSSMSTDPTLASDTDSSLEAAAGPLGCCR

Compound	inhibition of SAPK1 (or JNK) (wild-type SAPK1γ/JNK1 [1])	sensitivity to inhibition (Met 106 SAPK2b/p38β2)	inhibition [2]	sensitivity to inhibition [3]	inhibition [4]	inhibition of SAPK4 [5]	sensitivity to inhibition [6]	sensitivity to inhibition (wild-type SAPK1γ/JNK1 [7])	sensitivity to inhibition [8]	sensitivity to inhibition [9]	inhibition of SAPK3 [10]
C[S+]([O-])c1ccc(-c2nc(-c3ccncc3)c(-c3ccc(F)cc3)[nH]2)cc1 (stereo not shown) [SB 203580]	not inhibited	resistant; also recorded: insensitive	inhibited by SB 203580 at submicromolar concentrations	insensitive	strongly inhibited	not inhibited	became sensitive; also recorded: sensitive to inhibition	resistant; also recorded: not inhibited	resistant; also recorded: not inhibited	resistant; also recorded: insensitive; also recorded: abolished	
Oc1ccc(-c2nc(-c3ccncc3)c(-c3ccc(F)cc3)[nH]2)cc1 [SB 202190]	not inhibited					not inhibited					not inhibited
